ChEMBL document CHEMBL1201862, “PubChem BioAssay data set” (2004)
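Dose response: 5 concentrations. Exposure: 48 h. Format: 96-well plates. Endpoint: linear interpolation; highest concentration if not reached. GI50: concentration for 50% inhibition of growth.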 Active and inactive are the calls of the source. No stated cut-off is given here; in the data, active = GI50 up to about 1.1 µM and inactive = higher.

How the values were obtained:
Assay in all cases: NCI tumour cell line growth inhibition, 48 h
[1] = test system: HT-29
[2] = test system: U-251
[3] = test system: SN12C
[4] = test system: SK-MEL-2
[5] = test system: SR
[6] = test system: ACHN
[7] = test system: NCI-H23
[8] = test system: OVCAR-4
[9] = test system: HCC 2998
[10] = test system: OVCAR-5
[11] = test system: UACC-62
[12] = test system: SK-MEL-5
[13] = test system: HOP-62
[14] = test system: LOX IMVI
[15] = test system: EKVX
[16] = test system: MOLT-4
[17] = test system: COLO 205
[18] = test system: KM12
[19] = test system: SNB-75
[20] = test system: SF-539

Measured: GI50

COc1cccc(CC2Cc3ccccc3CC(=O)N2)c1 (stereo not given)
inactive: [1] 92.7 µM | [2] 47.1 µM | [3] 69 µM | [4] 42.2 µM | [5] > 100 µM | [6] 76.2 µM | [7] 42.6 µM | [8] > 100 µM | [9] 72.1 µM | [10] 11.7 µM | [11] 39.8 µM | [12] 20.6 µM | [13] 9.18 µM | [14] 10.1 µM | [15] 35.6 µM | [16] 31.3 µM | [17] 74.1 µM | [18] 22 µM | [19] > 100 µM | [20] 88.5 µM

COc1ccc(C(O)CNC(=O)c2ccccc2)cc1 (stereo not given)
inactive: [1] > 100 µM | [2] > 100 µM | [3] > 100 µM | [4] > 100 µM | [5] > 100 µM | [6] > 100 µM | [7] > 100 µM | [8] > 100 µM | [9] > 100 µM | [10] > 100 µM | [11] > 100 µM | [12] > 100 µM | [13] > 100 µM | [14] > 100 µM | [15] > 100 µM | [16] > 100 µM | [17] > 100 µM | [18] > 100 µM | [19] > 100 µM | [20] > 100 µM

C=C1C2=C(CCCC2)C(=O)OC12CCCCC2
inactive: [1] 59.4 µM | [2] 73.6 µM | [3] > 100 µM | [4] 70.3 µM | [5] 38.9 µM | [6] 40.9 µM | [7] 36.9 µM | [8] 98.2 µM | [9] > 100 µM | [10] 79.8 µM | [11] 56.9 µM | [12] 38 µM | [13] > 100 µM | [14] 66.4 µM | [15] 52.1 µM | [16] 38.5 µM | [17] 51.2 µM | [18] 85.5 µM | [19] 23.8 µM | [20] > 100 µM

COc1ccccc1NC(=O)C(=O)C(C(=O)c1ccccc1F)C1OC(=O)c2ccccc21 (stereo not given)
inactive: [1] 23.9 µM | [2] 14.3 µM | [3] 24.2 µM | [4] 17.6 µM | [5] 22.2 µM | [6] 39.4 µM | [7] 20 µM | [8] 28.1 µM | [9] 14.8 µM | [10] 45.1 µM | [11] 15.8 µM | [12] 39.1 µM | [13] 30.5 µM | [14] 20.8 µM | [15] 27.9 µM | [16] 15.5 µM | [17] 19.2 µM | [18] 30.1 µM | [19] 21.9 µM | [20] 20.8 µM
